Results from paper PMC2358973, “A Cysteine Protease Is Critical for Babesia spp. Transmission in Haemaphysalis Ticks” (PLoS Pathogens, 2008).

Target: T1, longipain (Haemaphysalis longicornis, UniProt A1IHG0)
T1 construct: gene HlCath; partial coding region (pPICZC) expressed in Pichia pastoris GS115, HiTrap chelating column purified; precursor 341 residues with 17-residue signal peptide
Experiment: inhibition of fluorogenic substrate hydrolysis
Assay type: biochemical
Settings: read-out: Inhibition (%) relative to control / Z-F-R-MCA
Excerpt: inhibition of fluorogenic substrate hydrolysis on longipain

T1 sequence (A1IHG0 22-341 limits assumed): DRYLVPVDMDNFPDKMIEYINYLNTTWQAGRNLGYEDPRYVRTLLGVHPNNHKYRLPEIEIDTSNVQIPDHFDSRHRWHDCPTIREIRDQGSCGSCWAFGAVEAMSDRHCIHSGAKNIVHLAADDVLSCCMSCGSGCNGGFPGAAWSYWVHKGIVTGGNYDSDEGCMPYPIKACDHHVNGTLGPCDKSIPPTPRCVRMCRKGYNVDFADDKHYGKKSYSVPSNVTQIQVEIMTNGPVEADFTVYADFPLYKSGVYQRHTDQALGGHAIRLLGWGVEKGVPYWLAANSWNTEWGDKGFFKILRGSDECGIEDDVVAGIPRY

inhibition at 10 µM: 84 ± 0.2%
SMILES: CC(C)C[C@H](NC(=O)[C@@H]1O[C@H]1C(=O)O)C(=O)NCCCCNC(=N)N [E-64]
